# Laboratory results taken from publication PMC5654414, “In vitro and in vivo comparative and competitive activity-based protein profiling of GH29 α-L-fucosidases” (Chemical Science, 2015).
# Key:
# [1] = biological target: T1, recombinant human FUCA1 (human lysosomal α-L-fucosidase) (Homo sapiens, UniProt P04066); test: In vitro inhibition of FUCA1 activity, 4-methylumbelliferyl-α-L-fucopyranoside substrate, lysates of COS-7 cells over-expressing enzyme; assay type: biochemical
# T1 construct: expressed in transfected cells; host or cells: COS-7
# T1 sequence (P04066 32-466): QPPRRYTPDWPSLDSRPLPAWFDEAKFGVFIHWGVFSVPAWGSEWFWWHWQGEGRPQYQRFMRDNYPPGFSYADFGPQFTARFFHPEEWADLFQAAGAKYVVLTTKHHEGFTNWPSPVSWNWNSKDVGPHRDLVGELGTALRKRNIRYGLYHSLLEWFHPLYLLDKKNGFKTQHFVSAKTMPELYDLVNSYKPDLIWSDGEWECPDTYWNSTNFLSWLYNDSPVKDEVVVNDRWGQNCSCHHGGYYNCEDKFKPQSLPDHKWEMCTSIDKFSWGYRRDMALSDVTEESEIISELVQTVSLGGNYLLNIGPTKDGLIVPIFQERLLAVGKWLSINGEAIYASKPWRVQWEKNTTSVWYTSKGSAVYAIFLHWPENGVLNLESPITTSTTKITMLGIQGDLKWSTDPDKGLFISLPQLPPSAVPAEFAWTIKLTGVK
# Procedure: Having the cyclophellitol aziridine inhibitors and probes in hand, we determined their inhibitory potency towards the human lysosomal α-L-fucosidase, FUCA1.
# The enzymatic activity of α-L-fucosidase was assayed at 37 °C by incubating with 1.5 mM 4-methylumbelliferyl-α-L-fucopyranoside as substrate in 150 mM McIlvaine buffer, pH 4.5, supplemented with 0.1% (w/v) BSA. […] The reaction was quenched by adding excess NaOH–glycine (pH 10.6), after which fluorescence was measured with a fluorimeter LS55 (Perkin Elmer) using λEX 366 nm and λEM 445 nm.
# [2] = biological target: T2, FUCA1 (recombinant human GH29 α-L-fucosidase per table title) (Homo sapiens, UniProt P04066); test: In situ inhibition of FUCA1 in living fibroblasts; assay type: cell-based
# T2 construct: endogenous in cells; host or cells: fibroblasts
# T2 sequence (P04066 32-466): T1 sequence (P04066 32-466)
# [3] = biological target: T3, FUCA1 (Homo sapiens, UniProt P04066); test: ABP pulldown from Gaucher spleen lysate and LC-MS/MS identification; assay type: binding; parameters: lysates of spleens from a healthy human individual and a patient suffering from Gaucher disease; from tissue; host or cells: human spleen (normal subject and type 1 Gaucher patient); settings: 10 μM probe, Gaucher spleen lysate
# T3 sequence (P04066 32-466): T1 sequence (P04066 32-466)
# Procedure: To further determine the specificity of the developed ABPs, we have analyzed the ABP-labeled proteins in a complex tissue homogenate. For this purpose, we incubated Gaucher spleen lysate with biotinylated ABP 3 or with DMSO only (control) or competitive ABP 3-labeling by first incubating with fluorescent ABP 1. Glycosylated proteins were then enriched via ConA, followed by affinity purification with streptavidin coated paramagnetic beads. The identity of biotinylated and ABP 3-labeled proteins was determined by on-bead digestion with trypsin, peptide analysis by LC-MS/MS and matching against the human UniProt database, using the Mascot search engine as previously reported.[14] […]
# Gaucher spleen lysate (1 g) was cut with a sterile scalpel, mixed with 4 mL 25 mM potassium phosphate buffer (pH 6.5, supplemented with 0.1% (v/v) Triton X-100 and protease inhibitor cocktail (Roche)) and sonicated three times for 10 seconds at 100% strength and kept on ice. […] Lysate was then centrifuged for 10 min at 10 000 g, supernatant collected carefully, protein concentration determined and […] total protein was then incubated with either 0.1% (v/v) DMSO, ABP 1 or ABP 3, or firstly with 10 μM ABP 1 followed by 10 μM of ABP 3, each step taking 30 min at 37 °C, in a total volume of 1 mL McIlvaine buffer, pH 4.5. […]
# [4] = test system: recombinant α-L-fucosidase from Bacteroides thetaiotaomicron gene 2970; test: Competitive ABPP in E. coli lysate overexpressing bacterial α-L-fucosidase, ABP 1 labeling; assay type: binding
# Procedure: (§1) All pre-incubations and ABP labeling-reactions occurred for 30 min at 37 °C. Total lysates (50 μg), medium (500 μg) or purified protein preparations (5 μg) were labeled with 1 μM JJB256 1 or JJB244 2, dissolved in 150 mM McIlvaine buffer, pH 4.5, incubating for 30 min at 37 °C. For ABPP, protein preparations were pre-incubated with compounds 4 (100 μM), 6 (100 μM), 7–13 (1 or 5 mM, specified in the main text) prior to the addition of 100 nM fluorescent ABPs. Influence of pH on ABP labeling involved pre-incubation at pH 3–10 prior to addition of 100 nM ABP 1. Direct labeling of retaining β-glucosidases occurred at pH 5.0 in conjunction with 100 nM ABP JJB75. Samples were then denatured with 5× Laemmli buffer (50% (v/v) 1 M Tris–HCl, pH 6.8, 50% (v/v) 100% glycerol, 10% (w/v) DTT, 10% (w/v) SDS, 0.01% (w/v) bromophenol blue), boiled for 4 min at 100 °C, and separated by gel electrophoresis on 10% (w/v) SDS-PAGE gels running continuously at 90 V.[13],[14] Wet slab-gels were scanned on fluorescence using a Typhoon Variable Mode Imager (Amersham Biosciences) using λEX 488 nm and λEM 520 nm (band pass filter 40 nm) for green fluorescent JJB256 1 and λEX 532 nm and λEM 610 nM (band pass filter 30 nm) for red fluorescent JJB244 2 and JJB75.
# [5] = biological target: T4, α-L-fucosidase (Homo sapiens, UniProt P04066); test: Competitive ABPP in human spleen lysates (healthy and Gaucher), ABP 1 labeling; assay type: binding
# T4 construct: lysates of spleens from a healthy human individual and a patient suffering from Gaucher disease; from tissue; host or cells: human spleen (normal subject and type 1 Gaucher patient)
# T4 sequence (P04066 32-466): T1 sequence (P04066 32-466)
# Text: Subsequently, we exposed lysates of spleens from a healthy human individual and a patient suffering from Gaucher disease to ABP 1. […] The labeled band from human Gaucher spleen lysate is considerably more intense than the corresponding band in healthy human spleen, reflecting elevated α-L-fucosidase activity in the former. […] As before, labeling with ABP 1 was suppressed after pre-treatment with either N-benzoyl aziridine 4 or L-fuconojirimycin 6. To further ascertain that […] labels mammalian GH29 retaining α-L-fucosidases we performed a number of control experiments (ESI Fig. S2a ^†). Compound 1 labeled both FUCA1 and FUCA2 that were overexpressed in COS cells. Treatment of murine spleen lysates with 1 yielded a result essentially as observed for healthy human tissue (ESI Fig. S2b ^†).
# All pre-incubations and ABP labeling-reactions occurred for 30 min at 37 °C. Total lysates (50 μg), medium (500 μg) or purified protein preparations (5 μg) were labeled with 1 μM JJB256 1 or JJB244 2, dissolved in 150 mM McIlvaine buffer, pH 4.5, incubating for 30 min at 37 °C. […] Wet slab-gels were scanned on fluorescence using a Typhoon Variable Mode Imager (Amersham Biosciences) using λEX 488 nm and λEM 520 nm (band pass filter 40 nm) for green fluorescent JJB256 1 and λEX 532 nm and λEM 610 nM (band pass filter 30 nm) for red fluorescent JJB244 2 and JJB75.
# [6] = biological target: T3, FUCA1; test: Competitive ABPP on recombinant FUCA1 with ABP 1 labeling as readout; assay type: binding; parameters: expressed in transfected cells; host or cells: COS-7; settings: competitive ABPP format
# Procedure: as §1
SMILES,IC50 [1],IC50 [2],suppression of ABP 1 labeling after pre-treatment [5],further results
C[C@H]1[C@@H](O)[C@@H](O)[C@H](O)[C@H]2[C@@H]1N2C(=O)CCCCCCCn1cc(CNC(=O)CCCCCNC(=O)CCCC[C@@H]2SC[C@@H]3NC(=O)N[C@@H]32)nn1 [compound 3],7.2 ± 1.1 nM,–,–,identification of FUCA1 after pull-down [3]: one of the top identified proteins
"C[C@@H]1NC[C@@H](O)[C@H](O)[C@@H]1O.Cl [compound 6, 1-deoxy-L-fuconojirimycin, reference compound]",–,–,suppressed,blocking of ABP 1 labeling of major 50 kD band ([4]; pre-incubation with 5 mM): blocked; blocking of ABP 1 labeling of α-L-fucosidase [6]: able to inhibit FUCA1

# The next lines start with results.
IC50 [1],IC50 [2],SMILES,suppression of ABP 1 labeling after pre-treatment [5],further results
8.7 ± 1.2 nM,158 ± 22 nM,COc1ccc(C2=[N+]3C(=C(CCCCc4cn(CCCCCCCC(=O)N5[C@@H]6[C@@H](C)[C@@H](O)[C@@H](O)[C@H](O)[C@@H]65)nn4)c4ccc(-c5ccc(OC)cc5)n4[B-]3(F)F)C=C2)cc1 [compound 2],–,–
372 ± 21.2 nM,515 ± 72.9 nM,C[C@H]1[C@@H](O)[C@@H](O)[C@H](O)[C@H]2[C@@H]1N2C(=O)c1ccccc1 [compound 4],suppressed,fold less active ([1]; compared to 5): about eight-fold; blocking of ABP 1 labeling of major 50 kD band ([4]; pre-incubation with 100 μM): blocked
46.8 ± 3.4 nM,77.9 ± 9.1 nM,CC(=O)N1[C@@H]2[C@@H](C)[C@@H](O)[C@@H](O)[C@H](O)[C@@H]21 [compound 5],–,–
8.7 ± 1.1 nM,65.4 ± 7.5 nM,C[C@H]1[C@@H](O)[C@@H](O)[C@H](O)[C@H]2[C@@H]1N2C(=O)CCCCCCCN=[N+]=[N-] [compound 23],–,fold increase in enzyme inhibition ([1]; comparing 5 with 23): 5 fold
